Eight compounds from ChEMBL document CHEMBL1268851, “Anti-inflammatory Biphenyls and Dibenzofurans from Rhaphiolepis indica” (J Nat Prod, 2010) can be followed below.

Molecules are shown by their SMILES. Where only a bound is given, the exact number is not on record here.

The term IC50 denotes the concentration needed to halve the response being measured.

The nature of the test: Antiinflammatory activity in human neutrophils assessed as inhibition of fMLP-indcued superoxide production after 5 mins. The settings on record: Neutrophil. The class given is functional, cell-based.
In the case of `CC(C)Cc1ccc(C(C)C(=O)O)cc1` (stereo not drawn) [IBUPROFEN], the IC50 was found to be 27.5 µM.

For the compound `COc1c2c(c3c(oc4c(OC)cccc43)c1OC)OCO2`, the IC50 was over 100 µM.

As for `COc1cc(O)cc(-c2ccccc2)c1`, the IC50 came to 34.1 µM.

For `COc1c(O)cc2c(oc3c(OC)ccc(OC)c32)c1OC`, the IC50 was 7.61 µM.

In the case of `COc1cc(O)cc(-c2ccccc2OC)c1`, the IC50 amounted to 8.36 µM.

In the case of `COc1c(O)cc2c(oc3cccc(OC)c32)c1OC`, the IC50 stood at 27.4 µM.

Consider `COc1cc(O)cc(-c2ccccc2O)c1`, for which the IC50 was determined as 2.04 µM.

Turning to `COc1c(O)cc2c(oc3c(OC)cccc32)c1OC`, the IC50 came to 27.4 µM.
